Assay results as given in patent publication US20100160369A1, “S1P1 Agonists and Methods of Making And Using” (EXELIXIS, INC., priority 2008, published 2010).
pEC50: −log10 of the molar value.

How the values were obtained:
S1P1 [1] = target: T1, S1P1 (Homo sapiens, UniProt P21453); assay: DELFIA GTP-Eu Binding Assay (Assay 3b); format: biochemical; design: purchased Lonza; host or cells: CHO cell membranes
Experimental: The DELFIA GTP-Eu binding assay (PerkinElmer) is a time-resolved fluorometric assay based on GDP-GTP exchange. CHO cell membranes (Lonza) expressing human S1P1 were incubated in 96-well filter plates (Pall, East Hills, N.Y.) in a final volume of 100 μL/well buffer containing 40 μg/mL membrane, 50 mM HEPES, 2 μM GDP, 10 mM MgCl2, 100 mM NaCl, 500 μg/mL Saponin and test compound. Test compounds were tested at maximum concentrations of 10 μM. Compounds were diluted (10 concentration points, 3-fold each) and added to the assay plate at a 1% final DMSO concentration. For each compound, there were duplicate assay plates and each assay plate had duplicate wells per concentration point. The plates were incubated for 30 min at room temperature on a plate shaker at low speed. GTP-Eu was added to each well (10 μL, 10 nM final concentration) and the plate was incubated for an additional 30 min with slow shaking The wells were washed with ice cold GTP washing buffer (3×150 μL) using a vacuum manifold and the assay plates read in an EnVision plate reader (PerkinElmer) at an excitation wavelength of 340 nm and an emission wavelength of 615 nm. To determine agonist activity, percent activity was calculated as [(test compound−background)/(positive control−background)*100], where background is the fluorescence in absence of compound and the positive control is the fluorescence from membranes incubated with 1 μM S1P (Avanti). The percent activities were plotted against compound concentration to determine IC50 or EC50 using XLFit (IDBS).
Assay 1 is the CNG cAMP Assay as described in Biological Example 1. Assay 2a and 2b are the Tango™ β-arrestin Recruitment Assay in HEK293 and U2OS cells, respectively, as described in Biological Example 2. Assay 3a is the hS1P1R GTPγS Binding Assay as described in Biological Example 3. Assay 3b is the GTP-Eu Binding Assay as described in Biological Example 3. EC50's were measured unless otherwise noted. […] In the table, “nt” means the Compound was not tested and “no” means the compound was tested but had no measurable activity under the assay conditions employed.
Target sequence in this assay (P21453 whole entry): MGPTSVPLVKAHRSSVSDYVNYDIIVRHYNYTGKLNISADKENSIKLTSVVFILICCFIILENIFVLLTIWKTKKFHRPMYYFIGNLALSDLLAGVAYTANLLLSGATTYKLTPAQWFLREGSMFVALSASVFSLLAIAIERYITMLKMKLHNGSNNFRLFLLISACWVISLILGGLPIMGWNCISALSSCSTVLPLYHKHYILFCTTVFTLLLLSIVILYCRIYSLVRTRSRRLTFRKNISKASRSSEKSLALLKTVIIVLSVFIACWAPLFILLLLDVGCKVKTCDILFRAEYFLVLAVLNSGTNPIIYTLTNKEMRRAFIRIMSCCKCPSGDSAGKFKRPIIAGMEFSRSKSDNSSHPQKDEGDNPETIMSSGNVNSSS

S1P1 [2] = target: T1, S1P1; assay: CNG cAMP Assay (Assay 1); format: cell-based; design: host or cells: HEK293 cells expressing the CNG channel; conditions: read-out: Assay 1 EC50
How it was run: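 cAMP-gated CNG membrane-potential read-out (350/590 nm, T90/T0 ratio) in S1P1/CNG HEK293 cells after 90 min with compound plus NECA 500 nM, S1P 10 nM (EC95), Ro 20-1724 25 μM. Ten 3-fold points from 10 μM, 1.8% DMSO; percent activity vs NECA-only control gives EC50.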
Target sequence in this assay (P21453 whole entry): as above

S1P1 [3] = target: T1, S1P1; assay: Tango β-arrestin Recruitment Assay in HEK293 cells (Assay 2a); format: cell-based; design: linker with TEV protease (N1a) cleavage site (C); host or cells: HEK293, transiently transfected; conditions: Tango β-arrestin Recruitment Assay, read-out: Assay 2a EC50
How it was run: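 Agonist-driven β-arrestin2–TEV recruitment releases tTA to drive luciferase in transiently transfected HEK293 cells. Ten 3-fold dilutions from 10 μM top (1% DMSO), 16–18 h at 37 °C; EC50 fitted to percent activity versus DMSO background and 5 μM S1P efficacy control.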
Target sequence in this assay (P21453 whole entry): as above
Target sequence in this assay (P32121 whole entry partner): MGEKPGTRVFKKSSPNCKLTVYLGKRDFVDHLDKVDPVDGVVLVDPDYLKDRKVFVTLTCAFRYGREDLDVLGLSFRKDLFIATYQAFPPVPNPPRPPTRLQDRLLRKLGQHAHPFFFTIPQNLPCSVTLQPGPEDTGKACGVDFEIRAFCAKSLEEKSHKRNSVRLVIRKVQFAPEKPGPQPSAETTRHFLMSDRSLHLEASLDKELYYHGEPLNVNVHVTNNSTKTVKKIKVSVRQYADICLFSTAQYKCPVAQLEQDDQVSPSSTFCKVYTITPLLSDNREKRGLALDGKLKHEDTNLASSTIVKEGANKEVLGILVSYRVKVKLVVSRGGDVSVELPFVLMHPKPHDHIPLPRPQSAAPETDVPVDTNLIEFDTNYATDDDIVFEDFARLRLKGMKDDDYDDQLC

[4] = relative EC50 was measured (footnote 1), read-out: Assay 3b Relative EC50

| Structure (SMILES) | pEC50 (S1P1 [1]; read-out: Assay 3b EC50) | pEC50 (S1P1 [2]) | pEC50 (S1P1 [3]) | pEC50 (S1P1 [1]; footnote 1: Relative EC50 was measured, read-out: Assay 3b Relative EC50) | pEC50 (S1P1 [1]; [4]) |
| --- | --- | --- | --- | --- | --- |
| O=C(O)CCNCc1ccc(-c2noc(-c3cn4cc(C(F)(F)F)cc(Br)c4n3)n2)c(Cl)c1 [Example 131, N-[(4-{5-[8-bromo-6-(trifluoromethyl)imidazo[1,2-a]pyridin-2-yl]-1,2,4-oxadiazol-3-yl}-3-chlorophenyl)methyl]-beta-alanine] | 5.30 to 6.00 | ≥ 7.00 | 6.30 to 7.00 | – | – |
| O=C(O)CC(O)c1ccc(-c2noc(-c3cn4cc(C(F)(F)F)cc(Cl)c4n3)n2)c(Cl)c1 (stereo not drawn) [Example 139, 3-(3-chloro-4-{5-[8-chloro-6-(trifluoromethyl)imidazo[1,2-a]pyridin-2-yl]-1,2,4-oxadiazol-3-yl}phenyl)-3-hydroxypropanoic acid] | – | ≥ 7.00 | ≥ 7.00 | 6.30 to 7.00 | – |
| O=C(O)CCc1cc(F)c(-c2noc(-c3cn4cc(C(F)(F)F)cc(Cl)c4n3)n2)c(F)c1 [Entry 10] | – | ≥ 7.00 | 6.30 to 7.00 | – | 5.30 to 6.00 |
| COc1cc(Cl)c2nc(-c3nc(-c4cc(F)c(CCC(=O)O)cc4Cl)no3)cn2c1 [Entry 61] | 6.30 to 7.00 | ≥ 7.00 | ≥ 7.00 | – | – |
| O=C(O)CCc1ccc(-c2nnc(-c3cn4cc(C(F)(F)F)cc(Cl)c4n3)o2)c(Cl)c1 [Example 99] | – | ≥ 7.00 | 6.30 to 7.00 | – | 5.30 to 6.00 |
| O=C(O)C1CN(Cc2ccc(-c3noc(-c4cn5cc(C(F)(F)F)cc(Br)c5n4)n3)c(Cl)c2)C1 [Example 132, 1-[(4-{5-[8-bromo-6-(trifluoromethyl)imidazo[1,2-a]pyridin-2-yl]-1,2,4-oxadiazol-3-yl}-3-chlorophenyl)methyl]azetidine-3-carboxylic acid] | 5.30 to 6.00 | ≥ 7.00 | 6.30 to 7.00 | – | – |
| CC(CC(=O)O)c1ccc(-c2noc(-c3cn4cc(C(F)(F)F)cc(Cl)c4n3)n2)c(Cl)c1 (stereo not drawn) [Example 172, 3-(3-chloro-4-{5-[8-chloro-6-(trifluoromethyl)imidazo[1,2-a]pyridin-2-yl]-1,2,4-oxadiazol-3-yl}phenyl)butanoic acid] | 5.30 to 6.00 | ≥ 7.00 | 6.30 to 7.00 | – | – |
| NCC(O)COc1cc(Cl)c(-c2noc(-c3cn4cc(C(F)(F)F)cc(Cl)c4n3)n2)cc1Cl (stereo not drawn) [Example 226, 1-amino-3-[(2,5-dichloro-4-{5-[8-chloro-6-(trifluoromethyl)imidazo[1,2-a]pyridin-2-yl]-1,2,4-oxadiazol-3-yl}phenyl)oxy]propan-2-ol] | 6.00 to 6.30 | ≥ 7.00 | ≥ 7.00 | – | – |
| O=C(O)/C=C/c1cc(Cl)c(-c2noc(-c3cn4cc(C(F)(F)F)cc(Cl)c4n3)n2)cc1F [Entry 63] | 6.30 to 7.00 | ≥ 7.00 | ≥ 7.00 | – | – |
| Cc1cc(CCC(=O)O)ccc1-c1noc(-c2cn3cc(C(F)(F)F)cc(Cl)c3n2)n1 [Entry 2] | 6.30 to 7.00 | ≥ 7.00 | ≥ 7.00 | – | – |
| O=C(O)C1CC1c1cc(Cl)c(-c2noc(-c3cn4cc(C(F)(F)F)cc(Cl)c4n3)n2)cc1F (stereo not drawn) [Example 85, 2-(5-chloro-4-{5-[8-chloro-6-(trifluoromethyl)imidazo[1,2-a]pyridin-2-yl]-1,2,4-oxadiazol-3-yl}-2-fluorophenyl)cyclopropanecarboxylic acid] | 6.30 to 7.00 | ≥ 7.00 | ≥ 7.00 | – | – |
| O=C(O)CCNCc1ccc(-c2noc(-c3cn4cc(C(F)(F)F)cc(Cl)c4n3)n2)c(Cl)c1 [Example 130, N-[(3-chloro-4-{5-[8-chloro-6-(trifluoromethyl)imidazo[1,2-a]pyridin-2-yl]-1,2,4-oxadiazol-3-yl}phenyl)methyl]-beta-alanine] | 6.00 to 6.30 | ≥ 7.00 | 6.30 to 7.00 | – | – |
| O=C(O)CCc1ccc(-c2noc(-c3cn4cc(C(F)(F)F)cc(Cl)c4n3)n2)cc1F [Entry 6] | – | ≥ 7.00 | ≥ 7.00 | – | 6.00 to 6.30 |
